Data: US10335392B2, “Cyclic compounds useful as modulators of TNF α” (BRISTOL-MYERS SQUIBB COMPANY, priority 2015, dated 2019)

What follows are compounds tested against TNFα (Homo sapiens (Human), UniProt P01375) (assay: TNF induced HEK-Blue assay). Conditions: TNFα 0.5 ng/ml; HEK-Blue-CD40L cells, NF-kB-driven secreted alkaline phosphatase reporter; 18 h.
TNFα, sequence (P01375 77-233): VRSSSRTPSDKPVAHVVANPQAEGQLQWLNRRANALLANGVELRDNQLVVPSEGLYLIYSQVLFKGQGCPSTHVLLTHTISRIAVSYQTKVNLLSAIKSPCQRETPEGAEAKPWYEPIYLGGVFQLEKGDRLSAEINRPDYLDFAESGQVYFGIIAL
Assay type: cell-based
Procedure: TNF or CD40L-Induced HEK-Blue Assay
Test compounds serially diluted in DMSO were plated in an assay plate (LABCYTE, Cat. # LP-0200) at final concentrations ranging from 0.004 μM to 25 μM. TNFα (final concentration 0.5 ng/ml) or CD40L (final concentration 30 ng/ml) in assay buffer [DMEM, 4.5 g/l glucose (Gibco, Cat. 21063-029), 10% FBS (Sigma, F4135), 1% Penicillin-Streptomycin (Gibco, Cat. 15140-122), 1% Anti-Anti (Gibco, Cat. 15240-112) and 2 mM L-glutamine (Gibco, Cat. 25030-081)] was then added to the assay plate. After a 30 minute pre-incubation at 37° C. and 5% CO2, HEK-Blue™-CD40L cells (INVIVOGEN, Cat. Code hkb-cd40) containing a NF-kB-driven secreted alkaline phosphatase reporter gene were seeded into the assay plate at a density of 20,000 cells per well. This plate was then incubated for 18 h at 37° C. and 5% CO2. Secreted alkaline phosphatase expression was measured using QUANTI-Blue™ (INVIVOGEN, Cat. Code rep-qb1) according to manufacturer's specifications and the assay plate was read on a PerkinElmer Envision at 620 nm.
Inhibition data for the test compound over a range of concentrations was plotted as percentage inhibition of the test compound (100%=maximum inhibition). IC50 values were determined after correcting for background [(sample read−mean of low control)/(mean of high control−mean of low control)] where by the low control is DMSO without stimulation and high control is DMSO with stimulation. The IC50 is defined as the concentration of test compound which produces 50% inhibition and was quantified using the 4 parameter logistic equation to fit the data.
An IC50 of under 1 µM was found for `CC(C)(O)c1ncc(-c2cc3c(cc2F)nc2n3[C@@H](c3ccccc3OC(F)F)[C@H]3C[C@@H]23)cn1` (racemic) [Example 1, rac-2-(5-((1aR,8R,8aS)-8-(2-(difluoromethoxy)phenyl)-4-fluoro-1,1a,8,8a-tetrahydrobenzo[d]cyclopropa[3,4]pyrrolo[1,2-a]imidazol-5-yl)pyrimidin-2-yl) propan-2-ol] in this work. An IC50 of 10 to 25 µM was found for `Fc1cc2nc3n(c2cc1Br)[C@@H](c1ccccc1OC(F)F)[C@@H]1C[C@H]31` (racemic) [Example 11, rac-(1aR,8S,8aS)-5-bromo-8-(2-(difluoromethoxy)phenyl)-4-fluoro-1,1a,8,8a-tetrahydrobenzo[d]cyclopropa[3,4]pyrrolo[1,2-a]imidazole] in this work. An IC50 of under 1 µM was found for `CC(C)(O)c1ncc(-c2cc3c(cc2F)nc2n3[C@@H](c3ccccc3OC(F)F)[C@@H]3C[C@H]23)cn1` (racemic) [Example 20, rac-2-(5-((1aR,8S,8aS)-8-(2-(difluoromethoxy)phenyl)-4-fluoro-1,1a,8,8a-tetrahydrobenzo[d]cyclopropa[3,4]pyrrolo[1,2-a]imidazol-5-yl)pyrimidin-2-yl)propan-2-ol] in this work. An IC50 of 1 to 10 µM was found for `CC(C)(O)c1ncc(-c2cc3c(cc2F)nc2n3[C@@H](c3ccccc3Oc3ccccc3)[C@@H]3C[C@H]23)cn1` (racemic) [Example 23, rac-2-(5-((1aR,8S,8aS)-4-fluoro-8-(2-phenoxyphenyl)-1,1a,8,8a-tetrahydrobenzo[d]cyclopropa[3,4]pyrrolo[1,2-a]imidazol-5-yl)pyrimidin-2-yl)propan-2-ol] in this work. An IC50 of 1 to 10 µM was found for `CC(C)(O)c1ncc(-c2cc3c(cc2F)nc2n3[C@@H](c3ccccc3Oc3ccccc3)[C@H]3C[C@@H]23)cn1` (racemic) [Example 24, rac-2-(5-((1aR,8R,8aS)-4-fluoro-8-(2-phenoxyphenyl)-1,1a,8,8a-tetrahydrobenzo[d]cyclopropa[3,4]pyrrolo[1,2-a]imidazol-5-yl)pyrimidin-2-yl)propan-2-ol] in this work. An IC50 of 1 to 10 µM was found for `CC(C)(O)c1ncc(-c2cc3c(cc2F)nc2n3[C@@H](c3ccccc3OCc3ccccc3)[C@@H]3C[C@H]23)cn1` (racemic) [Example 25, rac-2-(5-((1aR,8S,8aS)-8-(2-(benzyloxy)phenyl)-4-fluoro-1,1a,8,8a-tetrahydrobenzo[d]cyclopropa[3,4]pyrrolo[1,2-a]imidazol-5-yl)pyrimidin-2-yl)propan-2-ol] in this work. An IC50 of 10 to 25 µM was found for `CC(C)(O)c1ncc(-c2cc3c(cc2F)nc2n3[C@@H](c3ccccc3OCc3ccccc3)[C@H]3C[C@@H]23)cn1` (racemic) [Example 26, rac-2-(5-((1aR,8R,8aS)-8-(2-(benzyloxy)phenyl)-4-fluoro-1,1a,8,8a-tetrahydrobenzo[d]cyclopropa[3,4]pyrrolo[1,2-a]imidazol-5-yl)pyrimidin-2-yl)propan-2-ol] in this work. An IC50 of 10 to 25 µM was found for `COc1ccc(-c2ccc3nc4n(c3c2)[C@@H](c2ccccc2)[C@H]2CNC[C@@H]42)cn1` (racemic) [Example 36, rac-(3aR,10S,10aS)-7-(6-methoxypyridin-3-yl)-10-phenyl-1,2,3,3a,10,10a-hexahydrobenzo[d]pyrrolo[3′,4′:3,4]pyrrolo[1,2-a]imidazole] in this work. An IC50 of 1 to 10 µM was found for `COc1ccc(-c2ccc3nc4n(c3c2)[C@@H](c2ccccc2)[C@H]2CN(C(=O)NC(C)(C)C)C[C@@H]42)cn1` (racemic) [Example 37, rac-(3aR,10S,10aS)—N-(tert-butyl)-7-(6-methoxypyridin-3-yl)-10-phenyl-3,3a,10,10a-tetrahydrobenzo[d]pyrrolo[3′,4′:3,4]pyrrolo[1,2-a]imidazole-2(1H)-carboxamide] in this work. An IC50 of 10 to 25 µM was found for `COc1ccc(-c2ccc3nc4n(c3c2)[C@@H](c2ccccc2)[C@H]2CN(C(C)=O)C[C@@H]42)cn1` (racemic) [Example 38, rac-1-((3aR,10S,10aS)-7-(6-methoxypyridin-3-yl)-10-phenyl-3,3a,10,10a-tetrahydrobenzo[d]pyrrolo[3′,4′:3,4]pyrrolo[1,2-a]imidazol-2(1H)-yl)ethan-1-one] in this work. An IC50 of 1 to 10 µM was found for `CCNC(=O)N1C[C@H]2[C@@H](C1)c1nc3ccc(-c4ccc(OC)nc4)cc3n1[C@H]2c1ccccc1` (racemic) [Example 39, rac-(3aR,10S,10aS)—N-ethyl-7-(6-methoxypyridin-3-yl)-10-phenyl-3,3a,10,10a-tetrahydrobenzo[d]pyrrolo[3′,4′:3,4]pyrrolo[1,2-a]imidazole-2(1H)-carboxamide] in this work. An IC50 of 10 to 25 µM was found for `COc1ccc(-c2ccc3nc4n(c3c2)[C@@H](c2ccccc2)[C@H]2CN(C(=O)OC(C)(C)C)C[C@@H]42)cn1` (racemic) [Example 40, rac-tert-butyl (3aR,10S,10aS)-7-(6-methoxypyridin-3-yl)-10-phenyl-3,3a,10,10a-tetrahydrobenzo[d]pyrrolo[3′,4′:3,4]pyrrolo[1,2-a]imidazole-2(1H)-carboxylate] in this work. An IC50 of 10 to 25 µM was found for `COc1ccc(-c2ccc3nc4n(c3c2)[C@@H](c2ccccc2)[C@H]2CN(C(=O)c3ccccc3)C[C@@H]42)cn1` (racemic) [Example 41, rac-((3aR,10S,10aS)-7-(6-methoxypyridin-3-yl)-10-phenyl-3,3a,10,10a-tetrahydrobenzo[d]pyrrolo[3′,4′:3,4]pyrrolo[1,2-a]imidazol-2(1H)-yl)(phenyl)methanone] in this work. An IC50 of 10 to 25 µM was found for `COc1ccc(-c2ccc3nc4n(c3c2)[C@@H](c2ccccc2)[C@H]2CC=CC[C@@H]42)cn1` (racemic) [Example 42, rac-(4aR,11R,11aS)-8-(6-methoxypyridin-3-yl)-1-phenyl-4,4a,11,11a-tetrahydro-1H-benzo[4,5]imidazo[2,1-a]isoindole] in this work. An IC50 of 10 to 25 µM was found for `CNC(=O)c1ccc(-c2ccc3nc4n(c3c2)[C@@H](c2cc(C)ccc2C)[C@H]2[C@H](c3ccccc3)[C@@H]42)cn1` (racemic) [Example 43, rac-5-((1R,1aS,8S,8aR)-8-(2,5-dimethylphenyl)-1-phenyl-1,1a,8,8a-tetrahydrobenzo[d]cyclopropa[3,4]pyrrolo[1,2-a]imidazol-5-yl)-N-methylpicolinamide] in this work. An IC50 of under 1 µM was found for `CC(C)(O)c1ncc(-c2cc3c(cc2F)nc2n3[C@H](c3ccccc3OC(F)F)[C@H]3C[C@@H]23)cn1` (stereo in doubt) [Example 21, 2-(5-((1aR,8S,8aS)-8-(2-(difluoromethoxy)phenyl)-4-fluoro-1,1a,8,8a-tetrahydrobenzo[d]cyclopropa[3,4]pyrrolo[1,2-a]imidazol-5-yl)pyrimidin-2-yl)propan-2-ol] in this work. An IC50 of under 1 µM was found for `CC(C)(O)c1ncc(-c2cc3c(cc2F)nc2n3[C@@H](c3ccccc3OC(F)F)[C@H]3C[C@@H]23)cn1` [Example 2, 2-(5-((1aR,8R,8aS)-8-(2-(difluoromethoxy)phenyl)-4-fluoro-1,1a,8,8a-tetrahydrobenzo[d]cyclopropa[3,4]pyrrolo[1,2-a]imidazol-5-yl)pyrimidin-2-yl)propan-2-ol] in this work. An IC50 of under 1 µM was found for `CC(C)(O)c1ncc(-c2cc3c(cc2F)nc2n3[C@H](c3ccccc3OC(F)F)[C@@H]3C[C@H]23)cn1` [Example 3, 2-(5-((1aS,8S,8aR)-8-(2-(difluoromethoxy)phenyl)-4-fluoro-1,1a,8,8a-tetrahydrobenzo[d]cyclopropa[3,4]pyrrolo[1,2-a]imidazol-5-yl)pyrimidin-2-yl)propan-2-ol] in this work. An IC50 of under 1 µM was found for `O=C(O)CN1CCN(c2ncc(-c3cc4c(cc3F)nc3n4[C@@H](c4ccccc4OC(F)F)[C@H]4C[C@@H]34)cn2)CC1` [Example 4, 2-(4-(5-((1aR,8R,8aS)-8-(2-(difluoromethoxy)phenyl)-4-fluoro-1,1a,8,8a-tetrahydrobenzo[d]cyclopropa[3,4]pyrrolo[1,2-a]imidazol-5-yl)pyrimidin-2-yl)piperazin-1-yl)acetic acid] in this work. An IC50 of under 1 µM was found for `NS(=O)(=O)c1ccc(-c2cc3c(cc2F)nc2n3[C@@H](c3ccccc3OC(F)F)[C@H]3C[C@@H]23)cc1` [Example 5, 4-((1aR,8R,8aS)-8-(2-(difluoromethoxy)phenyl)-4-fluoro-1,1a,8,8a-tetrahydrobenzo[d]cyclopropa[3,4]pyrrolo[1,2-a]imidazol-5-yl)benzenesulfonamide] in this work. An IC50 of under 1 µM was found for `Fc1cc2nc3n(c2cc1-c1cnc(N2CCOCC2)nc1)[C@@H](c1ccccc1OC(F)F)[C@H]1C[C@@H]31` [Example 6, 4-(5-((1aR,8R,8aS)-8-(2-(difluoromethoxy)phenyl)-4-fluoro-1,1a,8,8a-tetrahydrobenzo[d]cyclopropa[3,4]pyrrolo[1,2-a]imidazol-5-yl)pyrimidin-2-yl)morpholine] in this work. An IC50 of under 1 µM was found for `NC(=O)c1ccc(-c2cc3c(cc2F)nc2n3[C@@H](c3ccccc3OC(F)F)[C@H]3C[C@@H]23)cn1` [Example 7, 5-((1aR,8R,8aS)-8-(2-(difluoromethoxy)phenyl)-4-fluoro-1,1a,8,8a-tetrahydrobenzo[d]cyclopropa[3,4]pyrrolo[1,2-a]imidazol-5-yl)picolinamide] in this work.
